Experimental data taken from US9415039B2, “Disubstituted 3,4-diamino-3-cyclobutene-1,2-dione compounds for use in the treatment of chemokine-mediated diseases” (GALDERMA RESEARCH & DEVELOPMENT, priority 2011, dated 2016).

Legend:
CXCR1 receptor = target: T1, CXCR1 receptor (Homo sapiens, UniProt P25024); experiment: β-arrestin 2 recruitment test after CXCL8 activation, U2OS hCXCR1 β-arrestin cells; format: cell-based; details: stimulation with CXCL8 (10 nM), read-out: CXCR1 (nM), IC50 = half inhibition concentration
T1 construct: β-galactosidase enzyme-complementation fragment (PathHunter system); host or cells: U2OS
T1 sequence (P25024 1-350): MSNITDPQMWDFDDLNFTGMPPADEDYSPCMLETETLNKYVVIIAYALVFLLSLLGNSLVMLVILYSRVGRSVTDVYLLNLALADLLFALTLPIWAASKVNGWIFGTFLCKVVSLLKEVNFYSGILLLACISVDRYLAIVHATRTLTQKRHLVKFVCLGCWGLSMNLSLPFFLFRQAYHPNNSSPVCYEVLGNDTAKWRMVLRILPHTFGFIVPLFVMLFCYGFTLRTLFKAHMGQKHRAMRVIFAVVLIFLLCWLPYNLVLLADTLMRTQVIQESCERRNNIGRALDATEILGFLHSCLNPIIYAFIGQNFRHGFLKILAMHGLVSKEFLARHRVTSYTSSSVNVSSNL
Method: (§1) The in vitro affinity of the compounds of the present invention for the CXCR1 and CXCR2 receptors was determined on a functional test of the β-arrestin recruitment after receptor activation type.
(§2) In order to evaluate the direct interaction of the CXCR2 or CXCR1 receptor with β-arrestin 2, a β-arrestin 2 recruitment test for CXCR2 or CXCR1 based on β-galactosidase enzyme complementation (Olson K R, Eglen R M. Beta galactosidase complementation: a cell-based luminescent assay platform for drug discovery. Assay Drug Dev Technol. 2007 February; 5(1); 137-44), as established by DiscoveRx Corporation was used. The stimulation of these two cell lines with CXCL8 (10 nM) induces β-arrestin 2 recruitment, as indicated by a significant increase in the induction factor. […]
(§3) “PathHunter HEK293-CXCR2” or “U2OS hCXCR1 β-arrestin” cells (DiscoveRx Corporation) were seeded overnight at 10 000 cells/well (384-well format) in 20 μl of Opti MEM I medium. […] After incubation for 60 min at ambient temperature, the […] during the β-arrestin-CXCR2 interaction was measured for 0.3 s in an Envision 2102 Multilabel Reader (PerkinElmer Life and Analytical Sciences). The data were analyzed by means of a non-linear curve procedure using the XLFit4 exploitation software (IDBS) and the IC50 values were determined.

CXCR2 receptor = target: T2, CXCR2 receptor (Homo sapiens, UniProt P25025); experiment: β-arrestin 2 recruitment test after CXCL8 activation, PathHunter HEK293-CXCR2 cells; format: cell-based; details: stimulation with CXCL8 (10 nM), read-out: CXCR2 (nM), IC50 = half inhibition concentration
T2 construct: β-galactosidase enzyme-complementation fragment (PathHunter system); host or cells: HEK293
T2 sequence (P25025 1-360): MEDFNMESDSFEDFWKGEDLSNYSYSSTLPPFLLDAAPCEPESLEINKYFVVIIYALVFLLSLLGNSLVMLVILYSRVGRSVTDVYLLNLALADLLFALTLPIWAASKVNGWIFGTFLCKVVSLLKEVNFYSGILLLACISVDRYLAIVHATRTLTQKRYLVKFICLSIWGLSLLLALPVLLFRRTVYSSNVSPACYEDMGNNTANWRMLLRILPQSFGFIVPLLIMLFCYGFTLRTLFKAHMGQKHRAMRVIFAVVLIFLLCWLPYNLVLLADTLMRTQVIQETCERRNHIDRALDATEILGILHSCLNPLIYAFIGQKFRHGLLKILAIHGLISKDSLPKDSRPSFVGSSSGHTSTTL
Method: as §1, §2, §3

IC50 (CXCR1 receptor) | IC50 (CXCR2 receptor) | melting point | SMILES
5440 nM | 212 nM | 137 to 140 °C | Cc1ccc(C(Nc2c(Nc3cccc(C(=O)N(C)C)c3O)c(=O)c2=O)C2CCOCC2)o1 (stereo not drawn) [Example 1, 2-hydroxy-N,N-dimethyl-3-(2-{[(5-methylfuran-2-yl)-(tetrahydropyran-4-yl)methyl]amino}-3,4-dioxocyclobut-1-enylamino)benzamide]
3390 nM | 111 nM | 173 to 175 °C | Cc1ccc(C(Nc2c(Nc3cccc(C(=O)N(C)C)c3O)c(=O)c2=O)C2CCSCC2)o1 (stereo not drawn) [Example 2, 2-hydroxy-N,N-dimethyl-3-(2-{[(5-methylfuran-2-yl)-(tetrahydrothiopyran-4-yl)methyl]amino}-3,4-dioxocyclobut-1-enylamino)benzamide]
